Data taken from ChEMBL document CHEMBL1201862, “PubChem BioAssay data set” (2004).
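Results reflect a 48-hour exposure of cells in 96-well plates to compound at five concentrations. At the GI50, growth is halved.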 Activity calls are given as the source filed them. No stated cut-off is given here; in the data, active = GI50 up to about 1.1 µM and inactive = higher.

Tests used:
Assay in all cases: NCI anticancer screen, dose series, 48 h
UO-31 = system: UO-31
HOP-62 = system: HOP-62
OVCAR-5 = system: OVCAR-5
NCI-H226 = system: NCI-H226
SF-268 = system: SF-268
HCT-15 = system: HCT-15
NCI-H460 = system: NCI-H460
SK-MEL-2 = system: SK-MEL-2
UACC-257 = system: UACC-257
Malme-3M = system: Malme-3M
MOLT-4 = system: MOLT-4
HCC 2998 = system: HCC 2998
SF-295 = system: SF-295
UACC-62 = system: UACC-62
HL-60 = system: HL-60
CCRF-CEM = system: CCRF-CEM

Row | Structure (SMILES) | GI50 (UO-31) | GI50 (HOP-62) | GI50 (OVCAR-5) | GI50 (NCI-H226) | GI50 (SF-268) | GI50 (HCT-15) | GI50 (NCI-H460) | GI50 (SK-MEL-2) | GI50 (UACC-257) | GI50 (Malme-3M) | GI50 (MOLT-4) | GI50 (HCC 2998) | GI50 (SF-295) | GI50 (UACC-62) | GI50 (HL-60) | GI50 (CCRF-CEM)
1 | CCCCNC(=O)C1C(=O)N(CCCC)C(=O)/C1=N\N (stereo unspecified) | > 100 µM (inactive) | > 100 µM (inactive) | > 100 µM (inactive) | > 100 µM (inactive) | > 100 µM (inactive) | > 100 µM | > 100 µM (inactive) | > 100 µM (inactive) | > 100 µM (inactive) | > 100 µM (inactive) | > 100 µM (inactive) | > 100 µM (inactive) | > 100 µM (inactive) | > 100 µM (inactive) | – | –
2 | CC12CCCCC1(C)C2Sc1ccccc1 (stereo unspecified) | 57.9 µM (inactive) | > 100 µM (inactive) | > 100 µM (inactive) | 54.3 µM (inactive) | 42.3 µM (inactive) | 55.5 µM | > 68.4 µM (inactive) | 23.4 µM (inactive) | 39.1 µM (inactive) | 63 µM (inactive) | 19.1 µM (inactive) | 31.4 µM (inactive) | 35.6 µM (inactive) | 56.9 µM (inactive) | 17.5 µM (inactive) | 19.7 µM (inactive)
3 | COc1ccc(NC(=O)C(=O)C2CNC(=O)NC2=O)c(OC)c1 (stereo unspecified) | > 100 µM (inactive) | > 100 µM (inactive) | > 100 µM (inactive) | > 100 µM (inactive) | > 100 µM (inactive) | > 100 µM | > 100 µM (inactive) | > 100 µM (inactive) | > 100 µM (inactive) | > 100 µM (inactive) | > 100 µM (inactive) | > 100 µM (inactive) | > 100 µM (inactive) | > 100 µM (inactive) | > 100 µM (inactive) | > 100 µM (inactive)
4 | C=CCCC1(C)CCCNC1=S (stereo unspecified) | > 100 µM (inactive) | > 100 µM (inactive) | > 100 µM (inactive) | > 100 µM (inactive) | – | > 100 µM | > 100 µM (inactive) | > 100 µM (inactive) | > 100 µM (inactive) | > 100 µM (inactive) | > 100 µM (inactive) | > 100 µM (inactive) | > 100 µM (inactive) | > 100 µM (inactive) | > 100 µM (inactive) | 17.7 µM (inactive)
5 | COc1ccc(CC#N)c(OCc2ccccc2)c1 | 42.2 µM (inactive) | > 100 µM (inactive) | – | 6.73 µM (inactive) | 68.4 µM (inactive) | – | 61 µM (inactive) | – | 39.3 µM (inactive) | 22 µM (inactive) | 30.3 µM (inactive) | 29.9 µM (inactive) | 60 µM (inactive) | 28.8 µM (inactive) | > 10 µM (inactive) | > 100 µM (inactive)
6 | C[C@H](OCc1ccccc1)C(=O)N1CCS(=O)(=O)N2CCC[C@@H]2C1=O | > 100 µM (inactive) | > 100 µM (inactive) | > 100 µM (inactive) | > 100 µM (inactive) | > 100 µM (inactive) | > 100 µM | > 100 µM (inactive) | – | > 100 µM (inactive) | > 100 µM (inactive) | > 100 µM (inactive) | > 100 µM (inactive) | > 100 µM (inactive) | > 100 µM (inactive) | > 100 µM (inactive) | > 100 µM (inactive)
7 | O=c1cc[nH]c2ccc3nn[nH]c3c12 | – | > 100 µM (inactive) | > 100 µM (inactive) | – | > 100 µM (inactive) | > 100 µM | > 100 µM (inactive) | > 100 µM (inactive) | > 100 µM (inactive) | > 100 µM (inactive) | > 100 µM (inactive) | > 100 µM (inactive) | > 100 µM (inactive) | > 100 µM (inactive) | > 100 µM (inactive) | > 100 µM (inactive)
8 | CCN(CC)CCNC(=O)c1ccc([N+](=O)[O-])cc1OC | > 100 µM (inactive) | > 100 µM (inactive) | > 100 µM (inactive) | > 100 µM (inactive) | > 100 µM (inactive) | > 100 µM | > 100 µM (inactive) | > 100 µM (inactive) | > 100 µM (inactive) | > 100 µM (inactive) | > 100 µM (inactive) | – | > 100 µM (inactive) | > 100 µM (inactive) | > 100 µM (inactive) | > 100 µM (inactive)
9 | O=C(Nc1cccc2c1[nH]c1c(-c3ccccc3)nccc12)c1ccccc1[N+](=O)[O-] | – | – | 18.6 µM (inactive) | 3.74 µM (inactive) | 27.9 µM (inactive) | 7.36 µM | 18.6 µM (inactive) | 54.7 µM (inactive) | 74.6 µM (inactive) | > 100 µM (inactive) | 12.9 µM (inactive) | 18.6 µM (inactive) | 7.13 µM (inactive) | – | 26.2 µM (inactive) | 21.9 µM (inactive)
10 | COc1c(OC(C)=O)ccc(/C=C2\N=C(C)OC2=O)c1[N+](=O)[O-] | > 100 µM (inactive) | > 100 µM (inactive) | > 100 µM (inactive) | – | > 100 µM (inactive) | > 100 µM | > 100 µM (inactive) | > 100 µM (inactive) | > 100 µM (inactive) | > 100 µM (inactive) | > 100 µM (inactive) | > 100 µM (inactive) | > 100 µM (inactive) | > 100 µM (inactive) | > 100 µM (inactive) | > 100 µM (inactive)
11 | CCN(C1=CC(=O)NC2CCCCN12)c1ccccc1 (stereo unspecified) | > 10 µM (inactive) | > 100 µM (inactive) | > 100 µM (inactive) | – | > 100 µM (inactive) | > 100 µM | > 100 µM (inactive) | > 100 µM (inactive) | > 100 µM (inactive) | > 100 µM (inactive) | > 100 µM (inactive) | > 100 µM (inactive) | > 100 µM (inactive) | > 100 µM (inactive) | – | > 100 µM (inactive)
12 | O=C(c1ccco1)N(C(=S)N1CCN(c2ccccn2)CC1)c1ccccc1 | 88.7 µM (inactive) | > 100 µM (inactive) | > 100 µM (inactive) | 18.7 µM (inactive) | > 100 µM (inactive) | > 100 µM | > 100 µM (inactive) | > 100 µM (inactive) | > 100 µM (inactive) | > 100 µM (inactive) | > 100 µM (inactive) | – | > 100 µM (inactive) | > 100 µM (inactive) | > 100 µM (inactive) | > 100 µM (inactive)
13 | ClC(Cl)[Si]12OCCN(CCO1)CCO2 | > 100 µM (inactive) | – | > 100 µM (inactive) | – | > 100 µM (inactive) | – | > 100 µM (inactive) | > 100 µM (inactive) | > 100 µM (inactive) | > 100 µM (inactive) | > 100 µM (inactive) | > 100 µM (inactive) | > 100 µM (inactive) | > 100 µM (inactive) | > 100 µM (inactive) | > 100 µM (inactive)
14 | CCC(C(=O)O)c1ccc(OCc2ccccc2)cc1 (stereo unspecified) | 21.5 µM (inactive) | > 100 µM (inactive) | > 100 µM (inactive) | > 100 µM (inactive) | > 100 µM (inactive) | – | > 100 µM (inactive) | > 100 µM (inactive) | > 100 µM (inactive) | > 100 µM (inactive) | > 100 µM (inactive) | > 100 µM (inactive) | > 100 µM (inactive) | > 100 µM (inactive) | > 100 µM (inactive) | > 100 µM (inactive)
15 | CC1=C(C(=O)Nc2c(C)cccc2C)C(c2ccccc2Cl)C(C(=O)Nc2c(C)cccc2C)=C(C)N1 | > 100 µM (inactive) | > 100 µM (inactive) | > 100 µM (inactive) | > 100 µM (inactive) | > 100 µM (inactive) | – | > 100 µM (inactive) | > 100 µM (inactive) | > 100 µM (inactive) | > 100 µM (inactive) | > 100 µM (inactive) | > 100 µM (inactive) | > 100 µM (inactive) | – | > 100 µM (inactive) | > 100 µM (inactive)
16 | Cc1ccccc1NC(=O)C1C(=O)N(c2ccccc2C)C(=O)/C1=N\NC(N)=O (stereo unspecified) | > 100 µM (inactive) | > 100 µM (inactive) | > 100 µM (inactive) | – | > 100 µM (inactive) | > 100 µM | > 100 µM (inactive) | > 100 µM (inactive) | > 100 µM (inactive) | > 100 µM (inactive) | > 100 µM (inactive) | > 100 µM (inactive) | > 100 µM (inactive) | > 100 µM (inactive) | > 100 µM (inactive) | > 100 µM (inactive)
17 | CCOc1ccccc1NC(=O)C1=C(C)NC(C)=C(C(=O)Nc2ccccc2OCC)C1c1ccc([N+](=O)[O-])cc1 | 32.7 µM (inactive) | > 100 µM (inactive) | > 100 µM (inactive) | 21.4 µM (inactive) | > 100 µM (inactive) | 75.3 µM | 63.2 µM (inactive) | 44.3 µM (inactive) | 31.2 µM (inactive) | > 100 µM (inactive) | – | > 100 µM (inactive) | 21.3 µM (inactive) | 26.1 µM (inactive) | 34.7 µM (inactive) | –
18 | Cc1ccc(NC(=O)C(=O)CC(=O)c2c(C)[n+]([O-])c3ccccc3[n+]2[O-])cc1C | > 100 µM (inactive) | > 100 µM (inactive) | > 100 µM (inactive) | > 100 µM (inactive) | > 100 µM (inactive) | 83.2 µM | 83 µM (inactive) | > 100 µM (inactive) | > 100 µM (inactive) | > 100 µM (inactive) | – | > 100 µM (inactive) | > 100 µM (inactive) | > 100 µM (inactive) | > 100 µM (inactive) | 63.1 µM (inactive)
19 | CCN(CC)CCCCC1CCN(CC(=O)N2c3cc(Cl)ccc3NC(=O)CC2C)CC1 (stereo unspecified) | > 100 µM (inactive) | > 100 µM (inactive) | > 100 µM (inactive) | > 100 µM (inactive) | > 100 µM (inactive) | > 100 µM | > 100 µM (inactive) | – | > 100 µM (inactive) | > 100 µM (inactive) | > 100 µM (inactive) | > 100 µM (inactive) | > 100 µM (inactive) | > 100 µM (inactive) | > 100 µM (inactive) | > 100 µM (inactive)
